In ChEMBL document CHEMBL1681651, “A broad spectrum anticancer nucleoside with selective toxicity against human colon cells in vitro” (2011):

Legend:
Type in all cases: functional
UO-31 = experiment: Growth inhibition of human UO31 cells assessed as cell growth at 1 uM after 48 hrs by SRB assay; conditions: UO-31, 48 h, read-out: Activity
SR = experiment: Growth inhibition of human SR cells assessed as cell growth at 10 uM after 48 hrs by SRB assay; conditions: read-out: Activity
NCI-H226 [1] = experiment: Growth inhibition of human NCI-H226 cells assessed as cell growth at 10 uM after 48 hrs by SRB assay; conditions: NCI-H226, 48 h, read-out: Activity
A549 = experiment: Growth inhibition of human A549 cells after 48 hrs by […] growth inhibition assay; conditions: A549, 48 h
HCC 2998 = experiment: Growth inhibition of human HCC2998 cells after 48 hrs by […] growth inhibition assay; conditions: HCC 2998, 48 h
LOX IMVI [2] = experiment: Growth inhibition of human LOXIMVI cells after 48 hrs by […] growth inhibition assay
SNB-19 = experiment: Growth inhibition of human SNB19 cells after 48 hrs by […] growth inhibition assay; conditions: SNB-19, 48 h
OVCAR-8 [3] = experiment: Growth inhibition of human OVCAR8 cells after 48 hrs by […] growth inhibition assay; conditions: OVCAR-8, 48 h
SK-OV-3 = experiment: Growth inhibition of human SKOV3 cells after 48 hrs by […] growth inhibition assay; conditions: SK-OV-3, 48 h
ACHN = experiment: Growth inhibition of human ACHN cells after 48 hrs by […] growth inhibition assay
MCF7 = experiment: Growth inhibition of human MCF7 cells after 48 hrs by […] growth inhibition assay; conditions: MCF7, 48 h
MDA-MB-231 = experiment: Growth inhibition of human MDA-MB-231 cells after 48 hrs by […] growth inhibition assay; conditions: MDA-MB-231, 48 h
KM12 = experiment: Growth inhibition of human KM12 cells assessed as cell growth at 0.1 uM after 48 hrs by SRB assay; conditions: KM12, 48 h, read-out: Activity
SK-MEL-5 [4] = experiment: Growth inhibition of human SK-MEL-5 cells assessed as cell growth at 0.1 uM after 48 hrs by SRB assay; conditions: SK-MEL-5, 48 h, read-out: Activity
OVCAR-5 = experiment: Growth inhibition of human OVCAR5 cells assessed as cell growth at 0.1 uM after 48 hrs by SRB assay; conditions: OVCAR-5, 48 h, read-out: Activity
M14 = experiment: Growth inhibition of human M14 cells assessed as cell growth at 10 uM after 48 hrs by SRB assay; conditions: M14, 48 h, read-out: Activity
PC-3 = experiment: Growth inhibition of human PC3 cells assessed as cell growth at 10 uM after 48 hrs by SRB assay; conditions: PC-3, 48 h, read-out: Activity
HT-29 = experiment: Growth inhibition of human HT-29 cells assessed as cell growth at 100 uM after 48 hrs by SRB assay; conditions: HT-29, 48 h, read-out: Activity
SF-539 = experiment: Growth inhibition of human SF539 cells assessed as cell growth at 100 uM after 48 hrs by SRB assay; conditions: SF-539, 48 h, read-out: Activity
LOX IMVI [5] = experiment: Growth inhibition of human LOXIMVI cells assessed as cell growth at 100 uM after 48 hrs by SRB assay; conditions: read-out: Activity
OVCAR-8 [6] = experiment: Growth inhibition of human OVCAR8 cells assessed as cell growth at 100 uM after 48 hrs by SRB assay; conditions: OVCAR-8, 48 h, read-out: Activity
A498 = experiment: Growth inhibition of human A498 cells assessed as cell growth at 100 uM after 48 hrs by SRB assay; conditions: A498, 48 h, read-out: Activity
RXF 393 = experiment: Growth inhibition of human RXF393 cells assessed as cell growth at 100 uM after 48 hrs by SRB assay; conditions: RXF 393, 48 h, read-out: Activity
HOP-92 = experiment: Growth inhibition of human HOP92 cells assessed as cell growth at 1 mM after 48 hrs by SRB assay; conditions: HOP-92, 48 h, read-out: Activity
NCI-H226 [7] = experiment: Growth inhibition of human NCI-H226 cells assessed as cell growth at 1 mM after 48 hrs by SRB assay; conditions: NCI-H226, 48 h, read-out: Activity
HCT-15 = experiment: Growth inhibition of human HCT15 cells assessed as cell growth at 1 mM after 48 hrs by SRB assay; conditions: HCT-15, 48 h, read-out: Activity
SK-MEL-5 [8] = experiment: Growth inhibition of human SK-MEL-5 cells assessed as cell growth at 1 mM after 48 hrs by SRB assay; conditions: SK-MEL-5, 48 h, read-out: Activity
OVCAR-3 = experiment: Growth inhibition of human OVCAR3 cells assessed as cell growth at 1 mM after 48 hrs by SRB assay; conditions: OVCAR-3, 48 h, read-out: Activity
MDA-MB-435 = experiment: Growth inhibition of human MDA-MB-435 cells assessed as cell growth at 1 mM after 48 hrs by SRB assay; conditions: MDA-MB-435, 48 h, read-out: Activity
SK-MEL-2 = experiment: Growth inhibition of human SK-MEL-2 cells assessed as cell growth at 1 uM after 48 hrs by SRB assay; conditions: SK-MEL-2, 48 h, read-out: Activity
[9] = read-out: LC50 (the source's name)
[10] = read-out: pLC50 (the source's name) (converted)

CCOC(=O)C[C@H]1[C@@H](O[Si](C)(C)C(C)(C)C)[C@H](n2cnc3c(NC(=O)Nc4ccccc4)ncnc32)O[C@@H]1CNC(=O)NC
growth at 1 µM (UO-31): 87%
growth at 10 µM (SR): 85%
growth at 10 µM (NCI-H226 [1]): 102%
GI50 (A549; read-out: GI50): 4.18 µM
CC50 (A549; [9]): 79.1 µM
TGI (A549; read-out: TGI): 19.2 µM
GI50 (A549; read-out: pGI50 (converted)): 4.17 µM
CC50 (A549; [10]): 79.4 µM
TGI (A549; read-out: pTGI (converted)): 19.1 µM
GI50 (HCC 2998; read-out: GI50): > 100 µM
CC50 (HCC 2998; [9]): > 100 µM
TGI (HCC 2998; read-out: TGI): > 100 µM
GI50 (HCC 2998; read-out: pGI50 (converted)): > 100 µM
CC50 (HCC 2998; [10]): > 100 µM
TGI (HCC 2998; read-out: pTGI (converted)): > 100 µM
GI50 (LOX IMVI [2]; read-out: GI50): 5.46 µM
CC50 (LOX IMVI [2]; [9]): > 100 µM
TGI (LOX IMVI [2]; read-out: TGI): > 100 µM
GI50 (LOX IMVI [2]; read-out: pGI50 (converted)): 5.5 µM
CC50 (LOX IMVI [2]; [10]): > 100 µM
TGI (LOX IMVI [2]; read-out: pTGI (converted)): > 100 µM
GI50 (SNB-19; read-out: GI50): 29 µM
CC50 (SNB-19; [9]): > 100 µM
TGI (SNB-19; read-out: TGI): > 100 µM
GI50 (SNB-19; read-out: pGI50 (converted)): 28.8 µM
CC50 (SNB-19; [10]): > 100 µM
TGI (SNB-19; read-out: pTGI): > 100 µM
GI50 (OVCAR-8 [3]; read-out: GI50): 4.92 µM
CC50 (OVCAR-8 [3]; [9]): > 100 µM
TGI (OVCAR-8 [3]; read-out: TGI): 77.2 µM
GI50 (OVCAR-8 [3]; read-out: pGI50 (converted)): 4.9 µM
CC50 (OVCAR-8 [3]; [10]): > 100 µM
TGI (OVCAR-8 [3]; read-out: pTGI (converted)): 77.6 µM
GI50 (SK-OV-3; read-out: GI50): 21 µM
CC50 (SK-OV-3; [9]): > 100 µM
TGI (SK-OV-3; read-out: TGI): > 100 µM
GI50 (SK-OV-3; read-out: pGI50 (converted)): 20.9 µM
CC50 (SK-OV-3; [10]): > 100 µM
TGI (SK-OV-3; read-out: pTGI): > 100 µM
GI50 (ACHN; read-out: GI50): 8.55 µM
CC50 (ACHN; [9]): > 100 µM
TGI (ACHN; read-out: TGI): > 100 µM
GI50 (ACHN; read-out: pGI50 (converted)): 8.51 µM
CC50 (ACHN; [10]): > 100 µM
TGI (ACHN; read-out: pTGI): > 100 µM
GI50 (MCF7; read-out: GI50): 3.42 µM
CC50 (MCF7; [9]): > 100 µM
TGI (MCF7; read-out: TGI): 45.1 µM
GI50 (MCF7; read-out: pGI50 (converted)): 3.39 µM
CC50 (MCF7; [10]): > 100 µM
TGI (MCF7; read-out: pTGI (converted)): 44.7 µM
GI50 (MDA-MB-231; read-out: GI50): 3.96 µM
CC50 (MDA-MB-231; [9]): > 100 µM
TGI (MDA-MB-231; read-out: TGI): 41.3 µM
GI50 (MDA-MB-231; read-out: pGI50 (converted)): 3.98 µM
CC50 (MDA-MB-231; [10]): > 100 µM
TGI (MDA-MB-231; read-out: pTGI (converted)): 41.7 µM
growth at 0.1 µM (KM12): 107%
growth at 0.1 µM (SK-MEL-5 [4]): 96%
growth at 0.1 µM (OVCAR-5): 104%
growth at 10 µM (M14): 81%
growth at 10 µM (PC-3): 103%
growth at 100 µM (HT-29): 17%
growth at 100 µM (SF-539): 29%
growth at 100 µM (LOX IMVI [5]): 35%
growth at 100 µM (OVCAR-8 [6]): 29%
growth at 100 µM (A498): 13%
growth at 100 µM (RXF 393): -46%
growth at 1000 µM (HOP-92): -61%
growth at 1000 µM (NCI-H226 [7]): 55%
growth at 1000 µM (HCT-15): 43%
growth at 1000 µM (SK-MEL-5 [8]): 11%
growth at 1000 µM (OVCAR-3): -53%
growth at 1000 µM (MDA-MB-435): 8%
growth at 1 µM (SK-MEL-2): 94%
